Source: patent US20190127456A1, “METHODS OF TREATING IDIOPATHIC PULMONARY FIBROSIS” (FibroGen, Inc., priority 2017, published 2019)
Like-named read-outs stand apart in the source and are kept apart here.

Legend:
[1] = combined clinical studies of pirfenidone, cited from earlier work
[2] = tested on: fibrosis genes in irradiated lung; assay: Microarray analysis of mRNA transcripts in irradiated lung; type: in vivo, mouse; settings: for % Normalization of gene expression, Igfbp5 / % Normalization of gene expression, Abca3 / % Normalization of gene expression, Gdf2 / % Normalization of gene expression, Cx3cl1 / % Normalization of gene expression, Retnla / % Normalization of gene expression, Nt5e / % Normalization of gene expression, Plat / % Normalization of gene expression, Ccr2 / % Normalization of gene expression, Igfbp7 / % Normalization of gene expression, Cdkn2a / % Normalization of gene expression, Apln / % Normalization of gene expression, Wisp1: irradiated mouse lung, 24 weeks after RT, 8 weeks treatment; for % Normalization of gene expression, Igfbp5: RT fold change 0.3; for % Normalization of gene expression, Abca3 / % Normalization of gene expression, Gdf2: RT fold change 0.4; for % Normalization of gene expression, Cx3cl1: RT fold change 0.5; for % Normalization of gene expression, Retnla: RT fold change 2.0; for % Normalization of gene expression, Nt5e: RT fold change 2.1; for % Normalization of gene expression, Plat: RT fold change 2.2; for % Normalization of gene expression, Ccr2: RT fold change 2.4; for % Normalization of gene expression, Igfbp7: RT fold change 2.6; for % Normalization of gene expression, Cdkn2a: RT fold change 2.7; for % Normalization of gene expression, Apln: RT fold change 5.3; for expression of the Wisp 1 and Nt5e genes: monotherapy compared to RT treatment alone
Method: C57B1/6 mice were irradiated with 14.5 Gy photons; full thorax, single dose. Treatment with therapeutic agent(s) (pamrevlumab, pirfenidone, and/or nintedanib) was initiated 16 weeks post-irradiation and continued for 8 weeks. Pamrevlumab (FG) was given IP, BIW, at 40 mg/kg; pirfenidone (PF) was given PO in chow, QD, at 300 mg/kg; nintedanib (ND) was given PO in chow, QD, at 100 mg/kg. Treatment with each agent alone, with combinations of two, and with a triple combination were carried out. Controls included non-irradiated mice, mice that were irradiated and not treated, and mice that were irradiated and given human IgG. Endpoint measurements were taken at 24 weeks for HRCT (lung structure), blood gas analysis (lung function), histology and gene expression analysis.
Microarray analysis of mRNA transcripts of numerous genes at 24 weeks after RT were carried out by standard techniques to compare the expression profiles of irradiated and treated animals to irradiated animals that were not further treated. The results of the later group, RT (control), were used to normalize the expression data from the other groups. Briefly, RNA from 4-7 animals per condition (RT (control), RT+hIgG, RT+FG, RT+ND, RT+PF, RT+FG+ND, RT+FG+PF, RT+ND+PF, RT+FG+ND+PF). Affymetrix 430 2.0 data was used. RT induced changes (≥1.5×, p<0.05) were filtered for treatment dependent correction (>50% correction, p<0.05). 80 RT-induced and 68 RT-suppressed transcripts were normalized at least 50% by one or more treatments. The resulting list was dominated by pamrevlumab-dependent normalization. Functional analysis indicated pamrevlumab treatment preferentially normalized RT genes known to be regulated by TGFβ and TNF.

IPF = settings: Week 52, Phase 3 clinical study; cited from earlier work
[3] = IPF patients; cited from earlier work
[4] = cited from earlier work
[5] = tested on: radiation-induced lung fibrosis; assay: Mouse radiation-induced lung fibrosis model: lung function by blood gas analysis; type: in vivo; settings: blood gas analysis at 24 weeks, compared to RT with no treatment; data not shown
Method: The objective of this study was to compare the activity of pamrevlumab monotherapy to either pirfenidone or nintedanib alone, and to evaluate the potential for enhanced activity of the combined agents. […] In this study, mice received thoracic irradiation (RT), followed by the therapeutic administration of the agents at 16 weeks post-irradiation when lung remodeling was evident by HRCT. After 8 weeks of drug treatment, lung density and volume were assessed by HRCT, lung function was assessed by blood gas analysis, and mice were sacrificed for histologic and gene expression analysis. C57B1/6 mice were irradiated with 14.5 Gy photons; full thorax, single dose. Treatment with therapeutic agent(s) (pamrevlumab, pirfenidone, and/or nintedanib) was initiated 16 weeks post-irradiation and continued for 8 weeks. Pamrevlumab (FG) was given IP, BIW, at 40 mg/kg; pirfenidone (PF) was given PO in chow, QD, at 300 mg/kg; nintedanib (ND) was given PO in chow, QD, at 100 mg/kg. Treatment with each agent alone, with combinations of two, and with a triple combination were carried out. Controls included non-irradiated mice, mice that were irradiated and not treated, and mice that were irradiated and given human IgG. […] The effect of the treatments on lung function was assessed by blood gas analysis (data not shown).

[6] = tested on: radiation-induced lung fibrosis; assay: Mouse radiation-induced lung fibrosis model: lung volume by HRCT; type: in vivo; settings: 14.5 Gy irradiated mice, treated 8 weeks from week 16, measured at 24 weeks; FIG. 4
Method: The objective of this study was to compare the activity of pamrevlumab monotherapy to either pirfenidone or nintedanib alone, and to evaluate the potential for enhanced activity of the combined agents. […] In this study, mice received thoracic irradiation (RT), followed by the therapeutic administration of the agents at 16 weeks post-irradiation when lung remodeling was evident by HRCT. After 8 weeks of drug treatment, lung density and volume were assessed by HRCT, lung function was assessed by blood gas analysis, and mice were sacrificed for histologic and gene expression analysis. C57B1/6 mice were irradiated with 14.5 Gy photons; full thorax, single dose. Treatment with therapeutic agent(s) (pamrevlumab, pirfenidone, and/or nintedanib) was initiated 16 weeks post-irradiation and continued for 8 weeks. Pamrevlumab (FG) was given IP, BIW, at 40 mg/kg; pirfenidone (PF) was given PO in chow, QD, at 300 mg/kg; nintedanib (ND) was given PO in chow, QD, at 100 mg/kg. Treatment with each agent alone, with combinations of two, and with a triple combination were carried out. Controls included non-irradiated mice, mice that were irradiated and not treated, and mice that were irradiated and given human IgG. Endpoint measurements were taken at 24 weeks for HRCT (lung structure), blood gas analysis (lung function), histology and gene expression analysis. […]

Row | Compound | % Normalization of gene expression, Igfbp5 [2] | % Normalization of gene expression, Abca3 [2] | % Normalization of gene expression, Gdf2 [2] | % Normalization of gene expression, Cx3cl1 [2] | % Normalization of gene expression, Retnla [2] | % Normalization of gene expression, Nt5e [2] | % Normalization of gene expression, Plat [2] | % Normalization of gene expression, Ccr2 [2] | % Normalization of gene expression, Igfbp7 [2] | % Normalization of gene expression, Cdkn2a [2] | % Normalization of gene expression, Apln [2] | % Normalization of gene expression, Wisp1 ([2]; RT fold change 6.9) | % Normalization of gene expression, Wisp1 ([2]; RT fold change 11.9) | expression of the Wisp 1 and Nt5e genes [2] | also measured
1 | Cc1ccc(=O)n(-c2ccccc2)c1 [pirfenidone, 5-methyl-1-phenyl-2-(1H)-pyridone] | 27% | −20% | 10% | −8% | −7% | −58% | 0% | −20% | −6% | −37% | 41% | −21% | −78% | further induction of expression | patients experiencing abdominal pain [1]: 24%; patients experiencing vomiting [1]: 13%; patients with skin rash [1]: 30%; patients experiencing nausea ([1]; placebo 16%): 36%; patients experiencing diarrhea ([1]; placebo 20%): 26%; mean UCSD-SOBQ score over placebo treated patients (IPF): no statistical significance
2 | COC(=O)c1ccc2c(c1)NC(=O)/C2=C(\Nc1ccc(N(C)C(=O)CN2CCN(C)CC2)cc1)c1ccccc1 [nintedanib] | 54% | −35% | 33% | −21% | −9% | −22% | −55% | 10% | 10% | 9% | 6% | −7% | −18% | further induction of expression | plasma half-life [3]: 9.5 h; patients with arterial thromboembolic events ([4]; a clinical trial of nintedanib): 2.5%; patients experiencing abdominal pain ([4]; clinical trials of nintedanib): 15%; patients experiencing vomiting ([4]; clinical trials of nintedanib): 12%; patients experiencing nausea ([4]; clinical trials of nintedanib, placebo 7%): 24%; patients experiencing diarrhea ([4]; clinical trials of nintedanib, placebo 18%): 62%; O2 saturation [5]: normalized O2 saturation; radiation-induced lung volume decrease [6]: not statistically different
